These results are taken from patent US10450295B2, “Method of using an indolinone molecule and derivatives for inhibiting liver fibrosis and hepatitis” (Acclaim BioMed USA LLC, priority 2013, dated 2019).

“Also recorded” adds a separate entry of the source.

What is called IC50 is the concentration at which inhibition is half-maximal.

The test system of test [1] is collagen 1A1 gene expression. Nature of the test: Real-time RT-PCR in HSC, collagen 1A1. It is filed as cell-based, human. Conditions: 0.625 μM, FIG. 7. The method, then:
(§1) Human Hepatic Stellate cells (LX-2 cell line) (HSCs) were obtained from the Key Lab of Regenerative Medicine, Jinan University, Guangzhou, China, which were maintained in Dulbecco's Modified Eagle Medium (DMEM)+10% fetal calf serum and penicillin-streptomycin (100 unit/ml and 0.1 mg/ml, respectively), in 5% CO2 at 37° C. inside a humidified cell incubator. The culture medium was changed every three days. To test the effects of small molecule Hesperadin on the mouse and human HSCs, the cultures were treated with 0.625 μM of Hesperadin for 48 hrs. […] The proliferation of HSCs was also evaluated by the MTT staining assay with 3-(4,5-Dimethylthiazol-2-yl)-2,5-diphenyltetrazolium bromide). […] The absorbance (at 570 nm) was measured using a BIORAD 3550 Microplate Reader. […]
(§2) Collagen type-I, -III and -VI, MMP-2, MMP-9 and TIMP-1 gene expression was determined using quantitative real-time PCR. […] Quantitation of mRNA levels was performed using a SYBR® Premix Ex Taq™ Kit (Takara) in an Applied Biosystems 7900HT Fast Real-Time PCR System. To quantify the amount of specific mRNA in the samples, a standard curve was generated for each PCR run using four amounts of the cDNA synthesized from our HSC cultures and liver samples. […] Data was analyzed using a StatView software (Abacus Concepts Inc) with Student's t-test.

The next test deals with collagen type III. Nature of the test: Immunofluorescent staining of HSC cultures, collagen type III. In kind it is cell-based, human. Conditions: 0.625 μM, 24-48 hours. Here is the method: (§3) Human Hepatic Stellate cells (LX-2 cell line) (HSCs) were obtained from the Key Lab of Regenerative Medicine, Jinan University, Guangzhou, China, which were maintained in Dulbecco's Modified Eagle Medium (DMEM)+10% fetal calf serum and penicillin-streptomycin (100 unit/ml and 0.1 mg/ml, respectively), in 5% CO2 at 37° C. inside a humidified cell incubator. The culture medium was changed every three days. To test the effects of small molecule Hesperadin on the mouse and human HSCs, the cultures were treated with 0.625 μM of Hesperadin for 48 hrs. The cultures were then fixed in ice cold 70% ethanol and incubated in phosphate buffered saline with RNase (0.25 mg/ml), Propidium iodide dye (40 μg/ml) and 0.1% Triton X for an hour at room temperature. For cell cycle analysis, the Propidium iodide stained cells were examined using a flow cytometer (“BD LSRFortessa Cell Analyzer”). The proliferation of HSCs was also evaluated by the MTT staining assay with 3-(4,5-Dimethylthiazol-2-yl)-2,5-diphenyltetrazolium bromide). […] The absorbance (at 570 nm) was measured using a BIORAD 3550 Microplate Reader. […] After washing, the sections were viewed and recorded using a FluoView FV1000 Confocal microscope and/or a Nikon i80 microscope respectively to identify the presence of HSC expressing collagens. The positive staining of Collagen types I, III and IV was analyzed with the Metamorph software.

A further test concerns MMP-9 gene expression. The test can be described thus: Real-time RT-PCR in HSC, MMP-9. In kind it is cell-based, human. Conditions: 0.625 μM, FIG. 10. The method, then: as §1, §2
For orientation: In qPCR the cycle at which signal appears reflects the starting amount.

The subject of another test is TIMP-1 gene expression. The test can be described thus: Real-time RT-PCR in HSC, TIMP-1. Conditions: 0.625 μM, FIG. 11. It is filed as cell-based, human. The method, then:
as §1, §2

Another test deals with collagen type IV. The test can be described thus: Immunofluorescent staining of HSC cultures, collagen type IV. Conditions: 0.625 μM, 24-48 hours. In kind it is cell-based, human. The method, then: as §3
Test [2] relates to cultured bloodstream forms (BF). Conditions: read-out: IC50, growth of cultured bloodstream forms (BF); cited from earlier work.
Test [3] has as its system collagen 3A1 gene expression. Nature of the test: Real-time RT-PCR in HSC, collagen 3A1. Conditions: 0.625 μM, FIG. 8. It is filed as cell-based, human. The method, then: as §1, §2

As for `CCS(=O)(=O)Nc1ccc2c(c1)/C(=C(/Nc1ccc(CN3CCCCC3)cc1)c1ccccc1)C(=O)N2` [Hesperadin, (Z)—N-(2-oxo-3-(Phenyl(4-(piperidin-1-ylmethyl)phenylamino)methylene)indolin-5-yl)ethanesulfonamide], the “Collagen 1A1 mRNA expression” value in test [1] is reported as “confirmed by real-time RT-PCR analysis”. Further, the “collagen type III expression (immunofluorescence)” value with collagen type III is given as “significantly inhibited; also recorded: inhibits the synthesis of collagen type III”. Besides, the “MMP-9 mRNA expression” value with MMP-9 gene expression is reported as “inhibited”. Also, the “TIMP-1 mRNA expression” value in the test with TIMP-1 gene expression is listed as “inhibited”. In addition, the “collagen type IV expression (immunofluorescence)” value in the test on collagen type IV is listed as “significantly inhibited; also recorded: inhibits the synthesis of collagen type IV”. For the same compound, the IC50 in test [2] is 50 nM. The “Collagen 3A1 mRNA expression” value in test [3] is “confirmed by real-time RT-PCR analysis”.
